Reference: patent US12098147B2, “Compound having novel structure, complex comprising same, anti-cancer pharmaceutical composition, and anti-cancer drug” (ETNOVA THERAPEUTICS CORP., priority 2018, dated 2024)
Where two headings read alike, the source gives them in different places.

Columns and labels:
[1] = test system: HT-29 cell line; assay: CCK-8 cell viability, HT-29 colorectal cancer cell line; type: cell-based, human; conditions: serum-free medium, 24 hours, mean ± SD of 2 to 3 experiments
Method: (§1) To identify the anticancer effect of the compounds L1, L2, and L3 according to Examples 1 to 3 of the present disclosure, and the complexes L1Pt, L2Pt, and L3Pt according to Examples 4 to 6 of the disclosure, the cell viability analysis of cancer cells using CCK-8 was performed on several cancer cell lines (colorectal cancer cell line (HT-29 cell line), breast cancer cell line (MCF-7 and MDA-MB-231), cervical cancer cell line (HeLa cell line), liver cancer cell line (Huh-7 and HepG2), brain glioma cell line (C6), lung cancer (A549), prostate cancer (PC3), kidney cancer (Caki-2), normal liver cell line (AML-12), embryonic kidney cell line (HEK-293), neural stem cell line (NE-4C) and normal breast epithelial cell line (MCF10a)).
(§2) CCK-8 (Cell counting kit-8) is analyzed using a highly water-soluble tetrazolium salt-[…]. [2-(2-methoxy-4-nitrophenyl)-3-(4-nitrophenyl)(2,4-disulfophenyl)-2H-tetrazolium, monosodium salt] is reduced under the presence of an electron medium to produces a water-soluble formazan orange dye. The amount of the formazan dye produced by dehydrogenase in a cell is directly proportional to the number of living cells.
(§3) In an experimental method for evaluating the properties of the compounds according to the present disclosure, various cancer cell lines derived from humans and normal cell lines of each tissue derived from humans and mice were used in this experiment. A complete growth medium corresponding to each cell line and having 10% of heat-inactivated FBS added thereto was used to maintain corresponding cells. The maintained cells were suspended in a volume of 200 μl at a density of 1 or 1.5×10^4 cells and planted in each well of a 96 well plate. The cells were attached to a 37° C. and 5% CO2 incubator for more than 14 hours, and we waited for a stable state. The next day, we removed the medium from the well. 100 μl of serum-free medium containing drugs of various concentrations (0 (control), 2.5, 5, 10, 20, 30, 40, 50, 100, 200 μM) was added to each well and the cells was cultured therein. On 22 hours after the incubation, 10 μl of CCK-8 solution was added to each well, followed by incubation for 2 hours. A plate on which the culture was completed was measured in terms of absorbance at 450 nm using a microplate reader.
(§4) Cell Viability Calculation:
(§5) • A: Absorbance value measured in a control well • B: Absorbance value measured in a well containing the drug
(§6) In Table 1 below, each compound was applied to the cells at 0, 2.5, 5, 10, 20, 30, 40, 50, 100, and 200 μM, and the cells was cultured in a medium free of serum for 24 hours. The measured absorbance value was converted to a % value based on a value of 0, such that a IC50 value was calculated. Each experiment was performed 2 to 3 times and a standard deviation value was obtained.

[2] = test system: PC3; assay: CCK-8 cell viability, PC3 prostate cancer cell line; type: cell-based, human; conditions: 24 hours, mean ± SD of 2 to 3 experiments
Method: as §1, §2, §3, §4, §5, §6

[3] = test system: AML12; assay: CCK-8 cell viability, AML-12 normal liver cell line; type: cell-based; conditions: for IC50: serum-free medium, 24 hours, CCK-8, mean ± SD of 2 to 3 experiments; for toxicity against normal hepatocytes, in words: normal hepatocytes (AML12), FIG. 4
Method: as §2, §3, §4, §5, §6

[4] = test system: MDA-MB-231; assay: CCK-8 cell viability, MDA-MB-231 breast cancer cell line; type: cell-based, human; conditions: 24 hours, mean ± SD of 2 to 3 experiments
Method: as §1, §2, §3, §4, §5, §6

[5] = test system: MCF10a; assay: CCK-8 cell viability, MCF10a normal breast epithelial cell line; type: cell-based; conditions: for IC50: serum-free medium, 24 hours, CCK-8, mean ± SD of 2 to 3 experiments; for cytotoxicity against breast epithelial cells, in words: breast epithelial cells (MCF10a), FIG. 4
Method: as §1, §2, §3, §4, §5, §6

[6] = test system: Huh-7; assay: CCK-8 cell viability, Huh-7 liver cancer cell line; type: cell-based, human; conditions: 24 hours, mean ± SD of 2 to 3 experiments
Method: as §1, §2, §3, §4, §5, §6

[7] = test system: HEK-293; assay: CCK-8 cell viability, HEK-293 embryonic kidney cell line; type: cell-based; conditions: serum-free medium, 24 hours, mean ± SD of 2 to 3 experiments, read-out: IC50 HEK293 (embryonic kidney)
Method: as §1, §2, §3, §4, §5, §6

[8] = test system: MCF-7; assay: CCK-8 cell viability, MCF-7 breast cancer cell line; type: cell-based, human; conditions: 24 hours, mean ± SD of 2 to 3 experiments
Method: as §1, §2, §3, §4, §5, §6

[9] = test system: C6; assay: CCK-8 cell viability, C6 brain glioma cell line; type: cell-based, human; conditions: 24 hours, mean ± SD of 2 to 3 experiments
Method: as §1, §2, §3, §4, §5, §6

[10] = test system: HeLa cell line; assay: CCK-8 cell viability, HeLa cervical cancer cell line; type: cell-based, human; conditions: serum-free medium, 24 hours, mean ± SD of 2 to 3 experiments
Method: as §1, §2, §3, §4, §5, §6

[11] = test system: Caki-2; assay: CCK-8 cell viability, Caki-2 kidney cancer cell line; type: cell-based, human; conditions: serum-free medium, 24 hours, mean ± SD of 2 to 3 experiments
Method: as §1, §2, §3, §4, §5, §6

[12] = test system: A549; assay: CCK-8 cell viability, A549 lung cancer cell line; type: cell-based, human; conditions: serum-free medium, 24 hours, mean ± SD of 2 to 3 experiments
Method: as §1, §2, §3, §4, §5, §6

[13] = test system: several cancer cell lines; assay: CCK-8 cell viability, panel of cancer cell lines compared in words (FIGS. 3a to 3e); type: cell-based, human; conditions: for effect on cancer cell lines compared with the rest of the compounds, in words / toxic effect on cancer cell lines compared with cisplatin and BTA, in words / cell toxicity on cancer cell lines compared with BTA, in words / cell toxicity on cancer cell lines compared with cisplatin, in words: Log IC50 comparison, FIGS. 3a to 3e; for effect on cancer cell lines compared with the rest of the compounds, in words: comparator the rest of the compounds; for toxic effect on cancer cell lines compared with cisplatin and BTA, in words: comparators cisplatin and BTA; for cell toxicity on cancer cell lines compared with BTA, in words: comparator BTA; for cell toxicity on cancer cell lines compared with cisplatin, in words: comparator cisplatin
Method: as §1, §2, §3
Further, FIGS. 3a to 3e show a graph in which a IC50 value which is obtained based on 2 to 3 times executions of the cell viability analysis is converted to a Log IC50 value. […] The comparative reliability values for BTA were expressed as […], ##p<0.01, and ## #p<0.001. A red line represents the value of cisplatin. A blue line represents the value of BTA.

[14] = test system: HepG2; assay: CCK-8 cell viability, HepG2 liver cancer cell line; type: cell-based, human; conditions: 24 hours, mean ± SD of 2 to 3 experiments
Method: as §1, §2, §3, §4, §5, §6

[15] = test system: NE-4C; assay: CCK-8 cell viability, NE-4C neural stem cell line; type: cell-based; conditions: for IC50: serum-free medium, 24 hours, CCK-8, mean ± SD of 2 to 3 experiments, read-out: IC50 NC-4C (Neural stem cell); for toxicity against brain neurons, in words: brain neurons (NE-4C), FIG. 4
Method: as §2, §3, §4, §5, §6

[16] = Homo sapiens, Huh-7, serum-free medium
[17] = Rattus norvegicus, C6, serum-free medium
[18] = Homo sapiens, HepG2, serum-free medium
[19] = Homo sapiens, MDA-MB-231, serum-free medium
[20] = Homo sapiens, MCF7, serum-free medium

| IC50 [6, 16] | IC50 [9, 17] | Compound | IC50 [1] | IC50 ([2]; serum-free medium) | IC50 [3] | IC50 ([4]; serum-free medium) | IC50 [5] | IC50 ([6]; serum-free medium) | IC50 [7] | IC50 ([8]; serum-free medium) | IC50 ([9]; serum-free medium) | IC50 [10] | IC50 [11] | IC50 [12] | IC50 ([14]; serum-free medium) | IC50 [15] | cytotoxicity against breast epithelial cells, in words [5] | effect on cancer cell lines compared with the rest of the compounds, in words [13] | IC50 ([15]; Neural stem cell) | toxicity against brain neurons, in words [15] | further results |
| --- | --- | --- | --- | --- | --- | --- | --- | --- | --- | --- | --- | --- | --- | --- | --- | --- | --- | --- | --- | --- | --- |
| 69.1 ± 5.25 µM | 77.8 ± 9.73 µM | NCC(N)C(=O)Nc1ccc(-c2nc3ccccc3s2)cc1 (centres unmarked) [Example L1, 2,3-diamoniumtrifluoroacetate-N-(4-benzothiazol-2-yl-phenyl)-propionamide] | – | – | – | – | – | – | – | – | – | – | – | – | – | – | weak cytotoxicity | superior effects on breast cancer, liver cancer, brain glioma, lung cancer, prostate cancer, and kidney cancer than the rest of the compounds did | 36.8 ± 3.66 µM | greater toxicity than BTA did | IC50 ([2]; Homo sapiens, PC-3, serum-free medium): 94.99 ± 0.82 µM; toxic effect on cancer cell lines compared with cisplatin and BTA, in words [13]: greater toxic effect against cancer cell lines of colorectal cancer, breast cancer, liver cancer, brain glioma, lung cancer, prostate cancer, and kidney cancer than the cisplatin and BTA did; IC50 [14, 18]: 5.94 ± 0.501 µM |
| 95.9 ± 15 µM | 143 ± 32.7 µM | O=C(Nc1ccc(-c2nc3ccccc3s2)cc1)C(C/N=C/c1ccccc1O)/N=C/c1ccccc1O (centres unmarked) [Example L2, N-(4-benzothiazol-2-yl-phenyl)-2,3-bis-[(2-hydroxy-benzylidene)-amino]-propionamide] | – | – | – | – | – | – | – | – | – | – | – | – | – | – | weak cytotoxicity | – | 28.23 ± 0.06 µM | greater toxicity than BTA did | toxicity against normal hepatocytes, in words [3]: did not exhibit liver cytotoxicity; IC50 [4, 19]: 152 ± 19.9 µM; IC50 [8, 20]: 98.2 ± 7.92 µM; IC50 ([10]; Homo sapiens, HeLa): 47.1 ± 6.07 µM; cell toxicity on cancer cell lines compared with BTA, in words [13]: greater cell toxicity against colorectal cancer, breast cancer, liver cancer, brain glioma, lung cancer, prostate cancer, and kidney cancer than BTA did; cell toxicity on cancer cell lines compared with cisplatin, in words [13]: greater toxic effect on cancer cell lines on lung cancer, prostate cancer, and kidney cancer than cisplatin did; IC50 [14, 18]: 14.2 ± 7.06 µM |
| 178 ± 2.6 µM | 142 ± 15.4 µM | O=C(Nc1ccc(-c2nc3ccccc3s2)cc1)C1CNC(c2ccccn2)=N1 (centres unmarked) [Example L3, N-(4-(benzo[d]thiazol-2-yl)phenyl)-2-(pyridin-2-yl)-4,5-dihydro-1H-imidazole-4-carboxamide] | – | – | – | – | – | – | – | – | – | – | – | – | – | – | weaker cytotoxicity or no cytotoxicity than cisplatin and BTA did | – | 22.4 ± 2.44 µM | greater toxicity than BTA did | toxicity against normal hepatocytes, in words [3]: did not exhibit liver cytotoxicity; IC50 [4, 19]: > 500 µM; IC50 [8, 20]: 190 ± 16.6 µM; IC50 ([10]; Homo sapiens, HeLa): 99 ± 3.54 µM; cell toxicity on cancer cell lines compared with BTA, in words [13]: greater cell toxicity on colorectal cancer breast cancer and brain glioma than BTA did; cell toxicity on cancer cell lines compared with cisplatin, in words [13]: greater cell toxicity on prostate cancer and kidney cancer than cisplatin did |

More lines, now with the values behind:

| Compound | IC50 [6, 16] | IC50 [9, 17] | IC50 [1] | IC50 ([2]; serum-free medium) | IC50 [3] | IC50 ([4]; serum-free medium) | IC50 [5] | IC50 ([6]; serum-free medium) | IC50 [7] | IC50 ([8]; serum-free medium) | IC50 ([9]; serum-free medium) | IC50 [10] | IC50 [11] | IC50 [12] | IC50 ([14]; serum-free medium) | IC50 [15] | cytotoxicity against breast epithelial cells, in words [5] | effect on cancer cell lines compared with the rest of the compounds, in words [13] | IC50 ([15]; Neural stem cell) | toxicity against brain neurons, in words [15] | further results |
| --- | --- | --- | --- | --- | --- | --- | --- | --- | --- | --- | --- | --- | --- | --- | --- | --- | --- | --- | --- | --- | --- |
| N.N.[Cl][Pt][Cl] [Cisplatin, cisplatin, reference compound] | – | – | 39.1 ± 0.61 µM | > 500 µM | 32.1 ± 4.45 µM | 181 ± 48.7 µM | 96 ± 6.72 µM | 38.6 ± 18.5 µM | 65.5 ± 4.06 µM | 204 ± 27.3 µM | 227 ± 34.3 µM | 26.2 ± 5.61 µM | > 500 µM | > 500 µM | 54.2 ± 31.8 µM | 9.01 ± 0.28 µM | – | – | – | – | effect on cancer cell lines, in words ([13]; Log IC50, FIGS. 3a to 3e, no comparator): did not have a great effect on lung cancer, prostate cancer, and kidney cancer |
| NCC(N)C(=O)Nc1ccc(-c2nc3ccccc3s2)cc1.[Cl][Pt][Cl] (centres unmarked) [Example L1Pt] | – | – | 42.6 ± 5.61 µM | 55.7 ± 7.47 µM | 139.1 ± 0.85 µM | 80.8 ± 10.5 µM | 46.9 ± 5.14 µM | 69.4 ± 1.24 µM | 54.9 ± 2.83 µM | 59 ± 11.1 µM | 93.3 ± 22.7 µM | 64.75 ± 0.31 µM | 106 ± 8.54 µM | 167 ± 11.2 µM | 7.49 ± 0.159 µM | 25.7 ± 1.66 µM | weak cytotoxicity | superior effects on breast cancer, liver cancer, brain glioma, lung cancer, prostate cancer, and kidney cancer than the rest of the compounds did | – | greater toxicity than BTA did | toxic effect on cancer cell lines compared with cisplatin and BTA, in words [13]: greater toxic effect against cancer cell lines of colorectal cancer, breast cancer, liver cancer, brain glioma, lung cancer, prostate cancer, and kidney cancer than the cisplatin and BTA did |
